# Values quoted from earlier work in patent publication US20160213673A1, “ENDURANCE FORMULATION AND USE” (priority 2015, published 2016).
# Key:
# [1] = exhausted rats
# [2] = following 4 mg/kg caffeine consumption
# [3] = during the first 15 minutes of exercise
# [4] = tested on: arginase
# [5] = tested on: UCP3 mRNA expression in skeletal muscle; details: occurred within minutes of capsinoid ingestion
# [6] = target: TRVP-1 (Homo sapiens, UniProt Q8NER1)
# [7] = not given; remark: listed apart in the source
# [8] = 3 mg of 9 mg of dihydrocapsiate per day for 28 days
# [9] = following capsiate administration
# Sequence of TRVP-1 (Q8NER1 whole entry): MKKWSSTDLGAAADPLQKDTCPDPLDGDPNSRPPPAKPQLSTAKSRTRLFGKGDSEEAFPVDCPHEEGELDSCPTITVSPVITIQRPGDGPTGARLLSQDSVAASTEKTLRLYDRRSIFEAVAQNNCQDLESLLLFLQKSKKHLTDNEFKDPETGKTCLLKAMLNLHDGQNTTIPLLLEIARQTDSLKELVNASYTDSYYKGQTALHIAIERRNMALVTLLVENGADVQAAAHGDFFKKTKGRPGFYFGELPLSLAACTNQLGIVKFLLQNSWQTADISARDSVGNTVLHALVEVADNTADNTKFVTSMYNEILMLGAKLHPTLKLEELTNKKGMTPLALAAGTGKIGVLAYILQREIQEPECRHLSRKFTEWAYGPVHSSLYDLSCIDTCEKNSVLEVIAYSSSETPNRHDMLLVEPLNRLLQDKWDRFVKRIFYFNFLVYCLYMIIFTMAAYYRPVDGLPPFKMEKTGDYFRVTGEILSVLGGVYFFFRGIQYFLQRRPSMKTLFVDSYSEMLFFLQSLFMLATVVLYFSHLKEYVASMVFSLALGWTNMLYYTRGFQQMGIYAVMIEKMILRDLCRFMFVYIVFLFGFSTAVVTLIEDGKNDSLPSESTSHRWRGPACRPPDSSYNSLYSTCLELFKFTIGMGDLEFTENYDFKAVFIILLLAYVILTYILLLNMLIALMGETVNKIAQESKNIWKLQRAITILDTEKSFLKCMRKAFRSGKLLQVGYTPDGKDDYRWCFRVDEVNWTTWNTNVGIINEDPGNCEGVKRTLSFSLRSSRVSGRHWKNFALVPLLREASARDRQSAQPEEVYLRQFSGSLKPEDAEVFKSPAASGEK
structure (smiles),measurement,setting,value
N=C(N)NCCC[C@H](N)C(=O)O [arginine],ammonia toxicity,[1],mitigate ammonia toxicity
Cn1c(=O)c2c(ncn2C)n(C)c1=O [caffeine],plasma free fatty acids,[2],greater increase
same,respiratory quotient (RQ),[2],significantly lower
same,decrease of glycogen utilization,[3],≤ 50%
same,arginase activity,[4],inhibits arginase activity
COc1cc(COC(=O)CCCC/C=C/C(C)C)ccc1O [capsiate],persistence of UCP3 mRNA expression in skeletal muscle,[5],2 h
same,residual glycogen in the gastrocnemius muscle,after 30 min of swimming,higher
same,serum free fatty acid concentration,after 30 min of swimming,tended to be higher
same,serum lactic acid concentration,after 30 min of swimming,significantly lower
same,carbohydrate oxidation,[9],reduced
same,fat oxidation,[9],significantly higher
same,oxygen consumption (aerobic),[9],significantly higher
same,swimming time versus mice without capsiate,mice,significantly longer
same,"rates of TRVP-1 activation, capsiate compared with dihydrocapsiate",[6],similar
same,ATP cost of twitch force generation,"[7]; mouse, in vivo",reduced
same,twitch force-generating capacity,"[7]; mouse, in vivo",increased
same,oxidative phosphorylation during rest,[7]; rest,not affected
same,contribution of oxidative phosphorylation to total energy turnover,[7]; when exercising,increased
same,glycolysis,[7]; when exercising,reduction
NC(=O)NCCC[C@H](N)C(=O)O [citrulline],ammonia toxicity,[1],mitigate ammonia toxicity
COc1cc(COC(=O)CCCCCCC(C)C)ccc1O [dihydrocapsiate],"rates of TRVP-1 activation, capsiate compared with dihydrocapsiate",[6],similar
same,post prandial energy expenditure,[8],significant increase
same,respiratory quotient (RQ) versus placebo group,[8],significantly lower
